According to patent publication US6274594A, “Isoquinoline derivatives and their therapeutical use” (SmithKline Beecham p.l.c., priority 1997, dated 2001):

Assays:
[1] = test system: electrically-induced seizures (maximal electroshock seizure threshold); assay: Maximal electroshock seizure (MEST) threshold test, rat model; assay type: in vivo; conditions: 2 mg/kg p.o., suspension in methyl cellulose, one hour post dosing, statistically significant
Experimental: The maximal electroshock seizure (MEST) threshold test in rodents is particularly sensitive for detecting potential anticonvulsant properties^1. In this model, anticonvulsant agents elevate the threshold to electrically-induced seizures whilst proconvulsants lower the seizure threshold.
Mice (naive male, Charles River, U.K. CD-1 strain, 25-30 g) are randomly assigned to groups of 10-20 and dosed orally or intraperitoneally at a dose volume of 10 ml/kg with various doses of compound (0.3-300 mg/kg) or vehicle. Mice are then subjected at 30 or 60 min post dose to a single electroshock (0.1 sec, 50 Hz, sine wave form) administered via corneal electrodes. The mean current and standard error required to induce a tonic seizure in 50% (CC50) of the mice in a particular treatment group is determined by the `up and down` method of Dixon and Mood (1948)^2. Statistical comparisons between vehicle- and drug-treated groups are made using the method of Litchfield and Wilcoxon (1949)^3.
The threshold for maximal (tonic hindlimb extension) electroshock seizures in male rats (Sprague Dawley, 80-150 g, 6 weeks old) was determined by a Hugo Sachs Electronik stimulator which delivered a constant current (0.3 sec duration; from 1-300 mA in steps of 5-20 mA). […]
The percentage increase or decrease in CC50 for each group compared to the control is calculated. […]

[2] = target: novel receptor obtainable from rat forebrain tissue; assay: [3H]-Compound A radioligand binding assay; conditions: competition with [3H]-Compound A (usually 20 nM)
Experimental: WO 92/22293 (SmithKline Beecham) discloses compounds having anti-convulsantactivity, including inter alia the compound trans-(+)-6-acetyl-4S-(4-fluorobenzoylamino)-3,4-dihydro-2,2-dimethyl-2H-1-benzopyran-3R-ol (hereinafter referred to as Compound A). […] The affinity of test compounds to the novel receptor site is assessed as follows.
Whole forebrain tissue is obtained from rats. The tissue is first homogenised in buffer (usually 50 mM Tris/HCl, pH 7.4). The homogenised tissue is washed by centrifugation and resuspension in the same buffer, then stored at -70° C. until used.
To carry out the radioligand binding assay, aliquots of tissue prepared as above (usually at a concentration of 1-2 mg protein/ml) are mixed with aliquots of [3H]-Compound A dissolved in buffer. The final concentration of [3H]-Compound A in the mixture is usually 20 nM. The mixture is incubated at room temperature for 1 hour. [3H]-Compound A bound to the tissue is then separated from unbound [3H]-Compound A by filtration through Whatman GF/B glass fibre filters. The filters are then washed rapidly with ice-cold buffer. The amount of radioactivity bound to the tissue trapped on the filters is measured by addition of liquid scintillation cocktail to the filters followed by counting in a liquid scintillation counter. […]

pKi value [2]: greater than 8
SMILES: CN1CCc2ccc(NC(=O)N3CCc4ccccc43)cc2C1 [Example 1, 2,3-Dihydroindole-1-carboxylic Acid (2-methyl-1,2,3,4-tetrahydroisoquinolin-7-yl)amide]
increase in seizure threshold (CC50) compared to control [1]: 225%
